{
  "source": "patent US9023788B2",
  "about": "“Methods compounds and pharmaceutical compositions for treating anxiety and mood disorders” (New York University, priority 2010, dated 2015)",
  "key": {"brain α-adrenoceptors": {"system": "brain α-adrenoceptors", "conditions": "cited from earlier work"}, "[1]": {"conditions": "in vivo; cited from earlier work"}, "LC α1-adrenoceptors [2]": {"system": "LC α1-adrenoceptors", "experiment": "Home cage test after LC microinjection", "assay_type": "in vivo, rat", "method": "The animal was brought into the laboratory in its home cage and habituated in this cage beneath the video camera for 3 h prior to being injected. […] Food and water remained on the cage during the test. The longer interval (30 min) was used in the home vs. novel cage test because a low baseline activity was desired, and it was necessary to allow time for the disturbance caused by handling the animal to subside. As in the novel cage test, the home cage tests were repeated for a total of 2-3 tests at weekly intervals with different doses of the agonist. All experiments were carried out between 1100 and 1400 h. Following the last behavioral test, the animals were anesthetized with Nembutal and infused bilaterally with 250 nl of 2% methylene blue. Frozen (unfixed) brain sections were stained with cresyl violet for histological localization of cannula placement.\nVideotapes were rated blind for gross movements (GMs), crosses of the cage midline (cage Xs), rearing responses, and time immobile (TI) by a trained observer. […] This included walks to a wall, rears, turns in place, and stretch and attend responses.\nAnimals showing significant dye penetration of the 4th ventricle were excluded from the study. Comparisons between two drug conditions in the novel cage experiment were evaluated by Bonferronicorrected dependent t-tests."}, "rats": {"system": "rats", "conditions": "cited from earlier work; for antidepressant effect after intracerebral administration: intracerebral infusion/injection"}, "LC α1-adrenoceptors [3]": {"system": "LC α1-adrenoceptors", "experiment": "Novel cage test after LC microinjection", "assay_type": "in vivo, rat"}, "Swiss Webster male mice [4]": {"system": "Swiss Webster male mice", "experiment": "Tail suspension test", "assay_type": "in vivo, mouse", "conditions": "DMI subacute i.p. 10 mg/kg"}, "Swiss Webster male mice [5]": {"system": "Swiss Webster male mice", "experiment": "Repeated open space forced swim (RFS) test", "conditions": "for immobility or distance swum versus vehicle, panel of currently available antidepressants: single acute i.p. dose 15 min prior, FIG. 14"}, "Swiss Webster male mice [6]": {"system": "Swiss Webster male mice", "experiment": "Acute forced swim test (Porsolt)", "assay_type": "in vivo, mouse", "conditions": "second swim; 6FNE ivt. peak dose 3 nmoles; DMI subacute i.p. 10 mg/kg"}, "Swiss Webster male mice [7]": {"system": "Swiss Webster male mice", "experiment": "LPS model of depression (anhedonia)", "assay_type": "in vivo, mouse", "conditions": "subacute i.p. DMI", "method": "1LPS model of depression (anhedonia): A modification of the Frenois et al (2007) model of LPS-induced anhedonia in the mouse was used to obtain a non-motoric index of depressed behavior. In this model, trained mice show a marked decrease in preference for a sweet solution 24-48 h after a systemic dose of LPS (830 μg/kg, i.p.), a time when they have recovered from the sickness behavior and anorexia caused by the acute effects of the toxin. For the model, the animals were first implanted with 4th ventricular cannulas as above and, during the recovery period, trained to drink diluted sweetened condensed milk solution (Magnolia 1:3 v:v milk:tap water) by 15 min presentations every other day for 7-10 d. […] Animals given i.p. injections were dosed 14, 12 and 0.5 h prior to the last test."}, "Swiss Webster male mice [8]": {"system": "Swiss Webster male mice", "experiment": "Open field motor activity and anxiety (i.p. dp6FNE/prazosin)", "assay_type": "in vivo, mouse", "conditions": "1 h; dp6FNE 0.1-3 mg/kg/prazosin; amphetamine 2 mg/kg i.p.", "method": "For purposes of comparison, some animals received instead d-amphetamine, 2 mg/kg, i.p. Total quadrants entered and time in the center area of the field as a ratio to the total distance traveled were rated from videorecordings."}, "[9]": {"conditions": "5th swim, acute ivt. 6FNE or DEX, DMI subacute i.p. 10 mg/kg"}, "[10]": {"conditions": "dpEPI 1 mg/kg i.p. in vehicle with prazosin 0.2 mg/kg + propranolol 0.5 mg/kg, 15 min prior"}},
  "data": [
    {"molecule": "CNC[C@H](O)c1ccc(O)c(O)c1", "note": "[EPI, epinephrine]", "values": [
      {"measurement": "agonist efficacy", "setting": "brain α-adrenoceptors", "value": "full agonist"}
    ]},
    {"molecule": "Cc1ccc(N(CC2=NCCN2)c2cccc(O)c2)cc1", "note": "[Phentolamine, phentolamine]", "values": [
      {"measurement": "passage of the blood brain barrier / uptake by the brain", "setting": "[1]", "value": "not taken up by the brain"}
    ]},
    {"molecule": "CNC[C@H](O)c1cccc(O)c1", "note": "[PE, phenylephrine]", "values": [
      {"measurement": "GMs and cage Xs, dose-response", "setting": "LC α1-adrenoceptors [2]; PE 0, 0.03, 0.1, 0.3, 1 nmole/side in LC, 30 min", "value": "small dose-dependent increases"},
      {"measurement": "TI", "setting": "LC α1-adrenoceptors [2]; PE 1.0 nmole/side in LC, home cage, 0-15 min", "value": "0.98 ± 0.98", "unit": "min"},
      {"measurement": "GMS", "setting": "LC α1-adrenoceptors [2]; PE 1.0 nmole/side in LC, home cage, 0-15 min, five rats", "value": "195.2 ± 25.3"},
      {"measurement": "% Rears", "setting": "LC α1-adrenoceptors [2]; Rears as % of GM, PE 1.0 nmole/side in LC, home cage, 0-15 min", "value": "33.5 ± 8.0", "unit": "%"},
      {"measurement": "% Xs", "setting": "LC α1-adrenoceptors [2]; Xs as % of GM, PE 1.0 nmole/side in LC, home cage, 0-15 min", "value": "12.3 ± 2.0", "unit": "%"},
      {"measurement": "anti-immobility effect after systemic administration", "setting": "rats; 16 mg/kg, i.p.", "value": "only at a near lethal dose"},
      {"measurement": "antidepressant effect after intracerebral administration", "setting": "rats", "value": "produced antidepressant effects in the forced swim test"},
      {"measurement": "reversal of terazosin-induced inactivity (GMs, cage Xs, TI)", "setting": "LC α1-adrenoceptors [3]; PE 10 nmoles/side coinjected with terazosin 3 nmoles/side in LC, 5 rats", "value": "completely reverse the terazosin-induced inactivity"}
    ]},
    {"molecule": "CNCCCN1c2ccccc2CCc2ccccc21", "note": "[DMI, desmethylimipramine]", "values": [
      {"measurement": "immobility, % vehicle control", "setting": "Swiss Webster male mice [4]; 6FNE ivt. 3 nmoles", "value": "64.7±20.7", "unit": "%"},
      {"measurement": "immobility versus vehicle", "setting": "Swiss Webster male mice [4]; acute ivt. 6FNE or DEX", "value": "significantly reduced immobility"},
      {"measurement": "immobility, % vehicle control", "setting": "Swiss Webster male mice [5]; 5th swim, 6FNE ivt. peak dose, DMI subacute i.p. 10 mg/kg", "value": "94.8±7.1", "unit": "%"},
      {"measurement": "distance swum versus vehicle", "setting": "Swiss Webster male mice [5]; [9]", "value": "failed to affect immobility or distance swum"},
      {"measurement": "immobility versus vehicle", "setting": "Swiss Webster male mice [5]; [9]", "value": "failed to affect immobility or distance swum"},
      {"measurement": "effect in repeated open-space swim test", "setting": "Swiss Webster male mice [5]; acute i.p., dp6FNE 1, 3, 10 mg/kg with prazosin 0.2 mg/kg, DMI 10 mg/kg, FIG. 5", "value": "complete lack of effect"},
      {"measurement": "immobility or distance swum versus vehicle, panel of currently available antidepressants", "setting": "Swiss Webster male mice [5]", "value": "dp6FNE/prazosin (1 mg/kg) was the only agent that either significantly reduced immobility"},
      {"measurement": "immobility versus vehicle", "setting": "Swiss Webster male mice [6]", "value": "significant reduction in immobility"},
      {"measurement": "anorexia / sucrose intake after subacute antidepressant", "setting": "Swiss Webster male mice [7]", "value": "anorexia and markedly reduced sucrose intakes"}
    ]},
    {"molecule": "CCN(CCCl)Cc1ccccc1Br", "note": "[DSP4]", "values": [
      {"measurement": "effect of pretreatment on behavioral effects of LC terazosin (novel cage) and PE (home cage)", "setting": "LC α1-adrenoceptors [3]; DSP4 10 days before test", "value": "markedly attenuated the behavioral effects"},
      {"measurement": "effect of pretreatment alone on exploratory activity", "setting": "LC α1-adrenoceptors [3]; DSP4 10 days before test, novel or home cages", "value": "had no effect on exploratory activity"}
    ]},
    {"molecule": "Clc1cccc(Cl)c1N=C1NCCN1", "note": "[clonidine]", "values": [
      {"measurement": "immobility or distance swum versus vehicle, panel of currently available antidepressants", "setting": "Swiss Webster male mice [5]", "value": "dp6FNE/prazosin (1 mg/kg) was the only agent that either significantly reduced immobility"},
      {"measurement": "antidepressant effect after intracerebral administration", "setting": "rats", "value": "rapid antidepressant effects"}
    ]},
    {"molecule": "CNCC(O)c1ccc(OC(=O)C(C)(C)C)c(OC(=O)C(C)(C)C)c1", "note": "(stereo not drawn) [dpEPI, dipivalyl-epinephrine]", "values": [
      {"measurement": "distance swum versus vehicle", "setting": "Swiss Webster male mice [5]; [10]", "value": "increase in distance swum"},
      {"measurement": "immobility versus vehicle", "setting": "Swiss Webster male mice [5]; [10]", "value": "significant reduction in immobility"}
    ]},
    {"molecule": "C[C@H](N)Cc1ccccc1", "note": "[amphetamine, d-amphetamine]", "values": [
      {"measurement": "motor activity (quadrants entered)", "setting": "Swiss Webster male mice [8]", "value": "highly significant increase on locomotion"},
      {"measurement": "relative time in the center of the field", "setting": "Swiss Webster male mice [8]", "value": "significantly tended to reduce it"}
    ]},
    {"molecule": "CNC1(c2ccccc2Cl)CCCCC1=O", "note": "(stereo not drawn) [ketamine]", "values": [
      {"measurement": "immobility or distance swum versus vehicle, panel of currently available antidepressants", "setting": "Swiss Webster male mice [5]", "value": "dp6FNE/prazosin (1 mg/kg) was the only agent that either significantly reduced immobility"}
    ]},
    {"molecule": "CNCCC(Oc1ccc(C(F)(F)F)cc1)c1ccccc1", "note": "(stereo not drawn) [fluoxetine]", "values": [
      {"measurement": "immobility or distance swum versus vehicle, panel of currently available antidepressants", "setting": "Swiss Webster male mice [5]", "value": "dp6FNE/prazosin (1 mg/kg) was the only agent that either significantly reduced immobility"}
    ]},
    {"molecule": "CC(NC(C)(C)C)C(=O)c1cccc(Cl)c1", "note": "(stereo not drawn) [bupropion]", "values": [
      {"measurement": "immobility or distance swum versus vehicle, panel of currently available antidepressants", "setting": "Swiss Webster male mice [5]", "value": "dp6FNE/prazosin (1 mg/kg) was the only agent that either significantly reduced immobility"}
    ]}
  ]
}
